From US20080161268A1, “[…] AMMONIUM SALT ANTIBACTERIAL AND WATER-BORNE COATING MATERIAL HAVING […] CONTAINING THE SAME” (COMPAL ELECTRONICS, INC., priority 2006, published 2008) come the findings set out here.

The test system of one data set is Bacteria. As to the kind of experiment: Antibiotic experiment according to Japanese Standards Testing Method (JISZ 2801-2000). It is filed as cell-based. Particulars: for Antimicrobial Activity Value: versus control group (neat cement paint). As to the method: After formulating the organic quaternary ammonium salt having the siloxane structure to have a concentration of 5% and adjusting the pH value to be 7, an antibiotic experiment was performed according to Japanese Standards Testing Method (JISZ 2801-2000).

Data set [1] in a line: Test of the stability of antibacterial in latex paint. It is filed as physicochemical. Particulars: pH about 7. As to the method: Four quaternary ammonium salt antibacterials A, B, C, and D shown in table 1 were prepared respectively, in which A was a quaternary ammonium salt antibacterial having the siloxane structure, and the other three antibacterials B, C, and D were quaternary ammonium salt antibacterials having no siloxane structure. Then, the four antibacterials A, B, C, and D were respectively added into a latex paint, and formulated to have a concentrations of 500, 1500, 2500, and 5000 ppm, and the pH value was adjusted to about 7. Changes of the antibacterials in the latex paint were observed.

Data set [2] can be described thus: Potential measurement (surface potential, Zetasizer Nano ZS). It is filed as physicochemical. Particulars: concentration about 5%, pH 0-7, FIG. 1. How it is done:
The methanol solution including 45% of the organic quaternary ammonium salt A having the siloxane structure and the methanol solution including 45% of the organic quaternary ammonium salt Bhaving no siloxane structure were respectively adjusted to a pH value of 0-7 by 0.1 N HCl and 0.1 N NaOH, and formulated to have a concentration of about 5%. The surface potentials were measured with Zetasizer, Nano ZS (Malvern, United Kingdom).

`CCCCCCCCCCCCCCCCCC[N+](C)(C)[Si](OC)(OC)OC.[Br-]` [Antibacterial A]: the “Bacteriostatic Ratio” value is “less than 90%” in the data set on Bacteria (0 h); 99% in the data set on Bacteria (3 h); 99.99% in the data set with Bacteria (24 h); “greater than 99.99%” in the data set on Bacteria (concentration 5%, pH 7, time not given). For the same compound, the “Bacteria count at 0 h * 3 sheets” value with Bacteria (0 h, concentration 5%, pH 7) is 3.73 × 10^5. Also, the entries for the “Antimicrobial Activity Value” in the data set on Bacteria (0 h), in the data set with Bacteria (3 h) and in the data set with Bacteria (24 h) were 0.47, 2.95 and 4.89, respectively. Also, the “Bacteria count at 3 h * 3 sheets” value in the data set on Bacteria (3 h, concentration 5%, pH 7) is reported as 1.48 × 10^3. Besides, the “Bacteria count at 24 h * 3 sheets” value with Bacteria (24 h, concentration 5%, pH 7) was below 10. In addition, the “Miscibility in the latex paint” value in data set [1] (500-5000 ppm) is “good miscibility”. Besides, the “Changes of the antibacterial in the latex paint” value in data set [1] (content of antibacterial 500 ppm), in data set [1] (content of antibacterial 1500 ppm), in data set [1] (content of antibacterial 2500 ppm) and in data set [1] (content of antibacterial 5000 ppm) was “miscible” each time. Besides, the “Electronegativity (surface potential) versus pH value” in data set [2] is given as “increased with the increment of pH value”.
